Experimental data taken from ChEMBL document CHEMBL1649329, “Differential selection of single-step AmpC or efflux mutants of Pseudomonas aeruginosa by using cefepime, ceftazidime, or ceftobiprole” (2010).
Converted amounts (≈) assume the structure as drawn.

Key:
Type in all cases: functional
Pseudomonas aeruginosa [1] = assay: Antimicrobial activity against Pseudomonas aeruginosa OC 12070 expressing 11 fold elevated mexX expression and 10 fold elevated mexY expression by broth macrodilution method
Pseudomonas aeruginosa [2] = assay: Antimicrobial activity against Pseudomonas aeruginosa OC 12070 expressing 27 fold elevated mexX expression and 49 fold elevated mexY expression by broth macrodilution method
Pseudomonas aeruginosa [3] = assay: Antimicrobial activity against Pseudomonas aeruginosa OC 12070 expressing 7 fold elevated AmpC expression by broth macrodilution method
Pseudomonas aeruginosa [4] = assay: Antimicrobial activity against Pseudomonas aeruginosa OC 12070 expressing 5 fold elevated AmpC expression by broth macrodilution method
Pseudomonas aeruginosa [5] = assay: Antimicrobial activity against Pseudomonas aeruginosa OC 12070 expressing 10 fold elevated mexX expression and 23 fold elevated mexY expression by broth macrodilution method
Pseudomonas aeruginosa [6] = assay: Antimicrobial activity against Pseudomonas aeruginosa OC 12070 expressing 151 fold elevated mexX expression and 127 fold elevated mexY expression by broth macrodilution method
Pseudomonas aeruginosa [7] = assay: Antimicrobial activity against Pseudomonas aeruginosa OC 12070 expressing 12 fold elevated mexX expression and 25 fold elevated mexY expression by broth macrodilution method
Pseudomonas aeruginosa [8] = assay: Antimicrobial activity against Pseudomonas aeruginosa OC 12070 expressing 107 fold elevated mexX expression and 155 fold elevated mexY expression by broth macrodilution method
Pseudomonas aeruginosa [9] = assay: Antimicrobial activity against Pseudomonas aeruginosa OC 12070 expressing 36 fold elevated mexX expression and 39 fold elevated mexY expression by broth macrodilution method
Pseudomonas aeruginosa [10] = assay: Antimicrobial activity against Pseudomonas aeruginosa OC 12070 expressing 65 fold elevated mexX expression and 106 fold elevated mexY expression by broth macrodilution method
Pseudomonas aeruginosa [11] = assay: Antimicrobial activity against wild type Pseudomonas aeruginosa
Pseudomonas aeruginosa [12] = assay: Antimicrobial activity against wild type Pseudomonas aeruginosa PAO1 by broth macrodilution method
Pseudomonas aeruginosa [13] = assay: Antimicrobial activity against Pseudomonas aeruginosa OC 4351 by broth macrodilution method
Pseudomonas aeruginosa [14] = assay: Antimicrobial activity against Pseudomonas aeruginosa OC 11053 by broth macrodilution method
Pseudomonas aeruginosa [15] = assay: Antimicrobial activity against Pseudomonas aeruginosa OC 11492 by broth macrodilution method
Pseudomonas aeruginosa [16] = assay: Antimicrobial activity against Pseudomonas aeruginosa OC 12070 by broth macrodilution method
Pseudomonas aeruginosa [17] = assay: Antimicrobial activity against Pseudomonas aeruginosa OC 11678 by broth macrodilution method
Pseudomonas aeruginosa [18] = assay: Antimicrobial activity against Pseudomonas aeruginosa OC 12261 by broth macrodilution method
Pseudomonas aeruginosa [19] = assay: Antimicrobial activity against wild type Pseudomonas aeruginosa ATCC 27853 by broth macrodilution method
Pseudomonas aeruginosa [20] = assay: Antimicrobial activity against Pseudomonas aeruginosa OC 11678 expressing 33 fold elevated AmpC expression by broth macrodilution method
Pseudomonas aeruginosa [21] = assay: Antimicrobial activity against Pseudomonas aeruginosa OC 11678 expressing 34 fold elevated AmpC expression by broth macrodilution method
Pseudomonas aeruginosa [22] = assay: Antimicrobial activity against Pseudomonas aeruginosa OC 11678 expressing 31 fold elevated AmpC expression by broth macrodilution method
Pseudomonas aeruginosa [23] = assay: Antimicrobial activity against Pseudomonas aeruginosa OC 11678 expressing 30 fold elevated AmpC expression by broth macrodilution method
Pseudomonas aeruginosa [24] = assay: Antimicrobial activity against Pseudomonas aeruginosa OC 11678 expressing 40 fold elevated AmpC expression by broth macrodilution method
Pseudomonas aeruginosa [25] = assay: Antimicrobial activity against Pseudomonas aeruginosa OC 11678 expressing 36 fold elevated AmpC expression by broth macrodilution method
Pseudomonas aeruginosa [26] = assay: Antimicrobial activity against Pseudomonas aeruginosa OC 11678 expressing 32 fold elevated AmpC expression by broth macrodilution method
Pseudomonas aeruginosa [27] = assay: Antimicrobial activity against Pseudomonas aeruginosa OC 11678 expressing 29 fold elevated AmpC expression by broth macrodilution method
Pseudomonas aeruginosa [28] = assay: Antimicrobial activity against Pseudomonas aeruginosa OC 11678 expressing 15 fold elevated AmpC expression by broth macrodilution method
Pseudomonas aeruginosa [29] = assay: Antimicrobial activity against Pseudomonas aeruginosa OC 11678 expressing 9 fold elevated AmpC expression by broth macrodilution method
Pseudomonas aeruginosa [30] = assay: microbe, parasite or virus in culture; conditions: OC 11678
Description: Antimicrobial activity against Pseudomonas aeruginosa OC 11678 expressing 27 fold elevated mexX expression and 16 fold elevated mexY expression by broth macrodilution method

Pseudomonas aeruginosa [31] = assay: Antimicrobial activity against Pseudomonas aeruginosa OC 11678 expressing 31 fold elevated mexX expression and 17 fold elevated mexY expression by broth macrodilution method
Pseudomonas aeruginosa [32] = assay: Antimicrobial activity against Pseudomonas aeruginosa OC 11678 expressing 71 fold elevated mexX expression and 43 fold elevated mexY expression by broth macrodilution method
Pseudomonas aeruginosa [33] = assay: Antimicrobial activity against Pseudomonas aeruginosa OC 12070 expressing 37 fold elevated AmpC expression by broth macrodilution method
Pseudomonas aeruginosa [34] = assay: Antimicrobial activity against Pseudomonas aeruginosa OC 12070 expressing 11 fold elevated AmpC expression by broth macrodilution method
Pseudomonas aeruginosa [35] = assay: Antimicrobial activity against Pseudomonas aeruginosa OC 12070 expressing 8 fold elevated AmpC expression by broth macrodilution method

Row | Structure (SMILES) | MIC (Pseudomonas aeruginosa [1]) | MIC (Pseudomonas aeruginosa [2]) | MIC (Pseudomonas aeruginosa [3]) | MIC (Pseudomonas aeruginosa [4]) | MIC (Pseudomonas aeruginosa [5]) | MIC (Pseudomonas aeruginosa [6]) | MIC (Pseudomonas aeruginosa [7]) | MIC (Pseudomonas aeruginosa [8]) | MIC (Pseudomonas aeruginosa [9]) | MIC (Pseudomonas aeruginosa [10]) | MIC50 (Pseudomonas aeruginosa [11]) | MIC (Pseudomonas aeruginosa [12]) | MIC (Pseudomonas aeruginosa [13]) | MIC (Pseudomonas aeruginosa [14]) | MIC (Pseudomonas aeruginosa [15]) | MIC (Pseudomonas aeruginosa [16]) | MIC (Pseudomonas aeruginosa [17]) | MIC (Pseudomonas aeruginosa [18]) | MIC (Pseudomonas aeruginosa [19]) | MIC (Pseudomonas aeruginosa [20]) | other results
1 | CC(C)(O/N=C(\C(=O)N[C@@H]1C(=O)N2C(C(=O)[O-])=C(C[n+]3ccccc3)CS[C@H]12)c1csc(N)n1)C(=O)O [CEFTAZIDIME] | 2 µg/mL (≈ 3.66 µM) | 4 µg/mL (≈ 7.32 µM) | 64 µg/mL (≈ 117 µM) | 16 µg/mL (≈ 29.3 µM) | 8 µg/mL (≈ 14.6 µM) | 8 µg/mL (≈ 14.6 µM) | 4 µg/mL (≈ 7.32 µM) | 16 µg/mL (≈ 29.3 µM) | 4 µg/mL (≈ 7.32 µM) | 16 µg/mL (≈ 29.3 µM) | 2 µg/mL (≈ 3.66 µM) | 1 µg/mL (≈ 1.83 µM) | 1 µg/mL (≈ 1.83 µM) | 1 µg/mL (≈ 1.83 µM) | 2 µg/mL (≈ 3.66 µM) | 2 µg/mL (≈ 3.66 µM) | 4 µg/mL (≈ 7.32 µM) | 4 µg/mL (≈ 7.32 µM) | 2 µg/mL (≈ 3.66 µM) | 128 µg/mL (≈ 234 µM) | MIC (Pseudomonas aeruginosa [21]): 128 µg/mL (≈ 234 µM); MIC (Pseudomonas aeruginosa [22]): 128 µg/mL (≈ 234 µM); MIC (Pseudomonas aeruginosa [23]): 128 µg/mL (≈ 234 µM); MIC (Pseudomonas aeruginosa [24]): 128 µg/mL (≈ 234 µM); MIC (Pseudomonas aeruginosa [25]): 64 µg/mL (≈ 117 µM); MIC (Pseudomonas aeruginosa [26]): 128 µg/mL (≈ 234 µM); MIC (Pseudomonas aeruginosa [27]): 128 µg/mL (≈ 234 µM); MIC (Pseudomonas aeruginosa [28]): 64 µg/mL (≈ 117 µM); MIC (Pseudomonas aeruginosa [29]): 64 µg/mL (≈ 117 µM); MIC (Pseudomonas aeruginosa [30]): 4 µg/mL (≈ 7.32 µM); MIC (Pseudomonas aeruginosa [31]): 4 µg/mL (≈ 7.32 µM); MIC (Pseudomonas aeruginosa [32]): 32 µg/mL (≈ 58.5 µM); MIC (Pseudomonas aeruginosa [33]): 32 µg/mL (≈ 58.5 µM); MIC (Pseudomonas aeruginosa [34]): 32 µg/mL (≈ 58.5 µM); MIC (Pseudomonas aeruginosa [35]): 32 µg/mL (≈ 58.5 µM)
2 | CO/N=C(\C(=O)N[C@@H]1C(=O)N2C(C(=O)[O-])=C(C[N+]3(C)CCCC3)CS[C@H]12)c1csc(N)n1 [CEFEPIME] | 8 µg/mL (≈ 16.6 µM) | 8 µg/mL (≈ 16.6 µM) | 16 µg/mL (≈ 33.3 µM) | 8 µg/mL (≈ 16.6 µM) | 8 µg/mL (≈ 16.6 µM) | 8 µg/mL (≈ 16.6 µM) | 8 µg/mL (≈ 16.6 µM) | 16 µg/mL (≈ 33.3 µM) | 8 µg/mL (≈ 16.6 µM) | 16 µg/mL (≈ 33.3 µM) | 4 µg/mL (≈ 8.32 µM) | 2 µg/mL (≈ 4.16 µM) | 2 µg/mL (≈ 4.16 µM) | 4 µg/mL (≈ 8.32 µM) | 4 µg/mL (≈ 8.32 µM) | 2 µg/mL (≈ 4.16 µM) | 8 µg/mL (≈ 16.6 µM) | 4 µg/mL (≈ 8.32 µM) | 2 µg/mL (≈ 4.16 µM) | 32 µg/mL (≈ 66.6 µM) | MIC (Pseudomonas aeruginosa [21]): 32 µg/mL (≈ 66.6 µM); MIC (Pseudomonas aeruginosa [22]): 32 µg/mL (≈ 66.6 µM); MIC (Pseudomonas aeruginosa [23]): 32 µg/mL (≈ 66.6 µM); MIC (Pseudomonas aeruginosa [24]): 32 µg/mL (≈ 66.6 µM); MIC (Pseudomonas aeruginosa [25]): 32 µg/mL (≈ 66.6 µM); MIC (Pseudomonas aeruginosa [26]): 32 µg/mL (≈ 66.6 µM); MIC (Pseudomonas aeruginosa [27]): 32 µg/mL (≈ 66.6 µM); MIC (Pseudomonas aeruginosa [28]): 32 µg/mL (≈ 66.6 µM); MIC (Pseudomonas aeruginosa [29]): 32 µg/mL (≈ 66.6 µM); MIC (Pseudomonas aeruginosa [30]): 8 µg/mL (≈ 16.6 µM); MIC (Pseudomonas aeruginosa [31]): 8 µg/mL (≈ 16.6 µM); MIC (Pseudomonas aeruginosa [32]): 32 µg/mL (≈ 66.6 µM); MIC (Pseudomonas aeruginosa [33]): 16 µg/mL (≈ 33.3 µM); MIC (Pseudomonas aeruginosa [34]): 16 µg/mL (≈ 33.3 µM); MIC (Pseudomonas aeruginosa [35]): 16 µg/mL (≈ 33.3 µM)
3 | Nc1nc(/C(=N/O)C(=O)N[C@@H]2C(=O)N3C(C(=O)O)=C(/C=C4\CCN([C@@H]5CCNC5)C4=O)CS[C@H]23)ns1 [CEFTOBIPROLE] | 8 µg/mL (≈ 15 µM) | 16 µg/mL (≈ 29.9 µM) | 4 µg/mL (≈ 7.48 µM) | 4 µg/mL (≈ 7.48 µM) | 16 µg/mL (≈ 29.9 µM) | 16 µg/mL (≈ 29.9 µM) | 16 µg/mL (≈ 29.9 µM) | 16 µg/mL (≈ 29.9 µM) | 16 µg/mL (≈ 29.9 µM) | 16 µg/mL (≈ 29.9 µM) | 2 µg/mL (≈ 3.74 µM) | 2 µg/mL (≈ 3.74 µM) | 2 µg/mL (≈ 3.74 µM) | 4 µg/mL (≈ 7.48 µM) | 8 µg/mL (≈ 15 µM) | 2 µg/mL (≈ 3.74 µM) | 4 µg/mL (≈ 7.48 µM) | 4 µg/mL (≈ 7.48 µM) | 2 µg/mL (≈ 3.74 µM) | 4 µg/mL (≈ 7.48 µM) | MIC (Pseudomonas aeruginosa [21]): 4 µg/mL (≈ 7.48 µM); MIC (Pseudomonas aeruginosa [22]): 4 µg/mL (≈ 7.48 µM); MIC (Pseudomonas aeruginosa [23]): 4 µg/mL (≈ 7.48 µM); MIC (Pseudomonas aeruginosa [24]): 4 µg/mL (≈ 7.48 µM); MIC (Pseudomonas aeruginosa [25]): 4 µg/mL (≈ 7.48 µM); MIC (Pseudomonas aeruginosa [26]): 4 µg/mL (≈ 7.48 µM); MIC (Pseudomonas aeruginosa [27]): 8 µg/mL (≈ 15 µM); MIC (Pseudomonas aeruginosa [28]): 4 µg/mL (≈ 7.48 µM); MIC (Pseudomonas aeruginosa [29]): 4 µg/mL (≈ 7.48 µM); MIC (Pseudomonas aeruginosa [30]): 8 µg/mL (≈ 15 µM); MIC (Pseudomonas aeruginosa [31]): 8 µg/mL (≈ 15 µM); MIC (Pseudomonas aeruginosa [32]): 32 µg/mL (≈ 59.9 µM); MIC (Pseudomonas aeruginosa [33]): 2 µg/mL (≈ 3.74 µM); MIC (Pseudomonas aeruginosa [34]): 4 µg/mL (≈ 7.48 µM); MIC (Pseudomonas aeruginosa [35]): 4 µg/mL (≈ 7.48 µM)
